Measurements published in patent US7960377B2 (priority 2008, dated 2011).
pEC50: −log10 of the molar value.

Target: human CB1 receptor (Homo sapiens, UniProt P21554)
Experiment: cell-based

human CB1 receptor, sequence (P21554 whole entry): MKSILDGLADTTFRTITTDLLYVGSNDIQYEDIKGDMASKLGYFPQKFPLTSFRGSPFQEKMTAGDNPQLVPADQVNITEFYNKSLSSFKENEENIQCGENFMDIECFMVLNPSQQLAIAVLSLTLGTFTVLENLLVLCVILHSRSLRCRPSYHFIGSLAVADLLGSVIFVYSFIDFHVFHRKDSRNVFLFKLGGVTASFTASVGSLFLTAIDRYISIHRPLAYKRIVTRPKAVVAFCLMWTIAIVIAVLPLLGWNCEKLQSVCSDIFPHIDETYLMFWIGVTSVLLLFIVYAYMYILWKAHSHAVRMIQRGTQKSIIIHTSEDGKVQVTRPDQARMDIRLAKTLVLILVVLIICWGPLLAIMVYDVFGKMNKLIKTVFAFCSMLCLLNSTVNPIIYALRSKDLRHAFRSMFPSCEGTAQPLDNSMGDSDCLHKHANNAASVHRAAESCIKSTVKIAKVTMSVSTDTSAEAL

Row | SMILES | pEC50 | inverse agonist mark, human CB1 receptor (asterisk at the compound number)
1 | Cc1cc(F)ccc1S(=O)(=O)N1CCOc2ncc(C(=O)NC(C)(C)C)cc21 [Example 56, N-tert-butyl-1-(4-fluoro-2-methylphenylsulfonyl)-2,3-dihydro-1H-pyrido[2,3-b][1,4]oxazine-7-carboxamide] | < 4.52 | 
2 | O=C(c1cnc2c(c1)N(S(=O)(=O)c1ccc(C(F)(F)F)cc1)CCO2)N1CCCCC1CN1CCCC1 (racemic) [Example 75, +/− (2-(pyrrolidin-1-ylmethyl)piperidin-1-yl)(1-(4-(trifluoromethyl)-phenylsulfonyl)-2,3-dihydro-1H-pyrido[2,3-b][1,4]oxazin-7-yl)-methanone] | < 4.52 | 
3 | COc1ccc(S(=O)(=O)N2CCOc3ncc(C(=O)NCC(C)(C)O)cc32)cc1F [Example 105] | < 4.52 | 
4 | O=C(NCC1CCOCC1)c1cnc2c(c1)N(S(=O)(=O)c1ccc(F)cc1)CCO2 [Example 9, 1-(4-fluorophenyl-sulfonyl)-N-((tetrahydro-2H-pyran-4-yl)methyl)-2,3-dihydro-1H-pyrido[2,3-b][1,4]oxazine-7-carboxamide] | < 4.52 | 
5 | CN1CCN(C(=O)c2cnc3c(c2)N(S(=O)(=O)c2ccc(Cl)c(Cl)c2)CCO3)CC1 [Example 123, (1-(3,4-dichlorophenyl-sulfonyl)-2,3-dihydro-1H-pyrido [2,3-b][1,4]oxazin-7-yl)(4-methylpiperazin-1-yl)methanone] | < 4.52 | 
6 | COc1ccc(S(=O)(=O)N2CCOc3ncc(C(=O)NCC(C)(C)O)cc32)c(F)c1 [Example 107] | < 4.52 | 
7 | O=C(NCC1CCCO1)c1cnc2c(c1)N(S(=O)(=O)c1ccc(F)cc1)CCO2 (centres unmarked) [Example 14, 1-(4-fluorophenyl-sulfonyl)-N-((tetra-hydrofuran-2-yl)methyl)-2,3-dihydro-1H-pyrido [2,3-b][1,4]oxazine-7-carboxamide] | < 4.52 | 
8 | CC(C)(O)CNC(=O)c1cnc2c(c1)N(S(=O)(=O)c1ccc(F)cc1F)CCO2 [Example 106, 1-(2,4-difluorophenylsulfonyl)-N-(2-hydroxy-2-methylpropyl)-2,3-dihydro-1H-pyrido[2,3-b][1,4]oxazine-7-carboxamide] | < 4.52 | 
9 | COc1ccc(S(=O)(=O)N2CCOc3ncc(C(=O)NC(C)(C)CO)cc32)cc1Cl [Example 100, 1-(3-chloro-4-methoxyphenylsulfonyl)-N-(1-hydroxy-2-methylpropan-2-yl)-2,3-dihydro-1H-pyrido[2,3-b][1,4]oxazine-7-carboxamide] | < 4.52 | 
10 | CC1CC(C)CN(C(=O)c2cnc3c(c2)N(S(=O)(=O)c2ccc(C(F)(F)F)cc2)CCO3)C1 (centres unmarked) [Example 200, (3,5-dimethylpiperidin-1-yl)(1-(4-(trifluoromethyl)phenylsulf-onyl)-2,3-dihydro-1H-pyrido[2,3-b][1,4]oxazin-7-yl)methanone] | < 4.52 | 
11 | CC(C)(O)CNC(=O)c1cnc2c(c1)N(S(=O)(=O)c1ccc(F)c(Cl)c1)CCO2 [Example 108, 1-(3-chloro-4-fluorophenylsulfonyl)-N-(2-hydroxy-2-methylpropyl)-2,3-dihydro-1H-pyrido[2,3-b][1,4]oxazine-7-carboxamide] | < 4.52 | 
12 | O=C(NC1CCCC1)c1cnc2c(c1)N(Cc1ccccc1)C(=O)CO2 [Example 219, 1-benzyl-N-cyclopentyl-2-oxo-2,3-dihydro-1H-pyrido[2,3-b] [1,4]oxazine-7-carboxamide] | < 4.52 | 
13 | COCCN(C)C(=O)c1cnc2c(c1)N(S(=O)(=O)c1ccc(Cl)cc1)CCO2 [Example 34, 1-(4-chlorophenyl-sulfonyl)-N-(2-methoxy-ethyl)-N-methyl-2,3-dihydro-1H-pyrido[2,3-b][1,4]oxazine-7-carboxamide] | < 4.52 | 
14 | COCCN(C)C(=O)c1cnc2c(c1)N(S(=O)(=O)c1ccc(C(F)(F)F)cc1)CCO2 [Example 35, N-(2-methoxyethyl)-N-methyl-1-(4-(trifluoro-methyl)phenylsulfonyl)-2,3-dihydro-1H-pyrido-[2,3-b][1,4]oxazine-7-carboxamide] | < 4.52 | 
15 | CCC(C)(C)NC(=O)c1cnc2c(c1)N(S(=O)(=O)N1CCN(C)CC1)CCO2 [Example 175, 1-(4-methylpiperazin-1-ylsulfonyl)-N-tert-pentyl-2,3-dihydro-1H-pyrido[2,3-b][1,4]oxazine-7-carboxamide] | < 4.52 | 
16 | COC(=O)CC1CCCCN1C(=O)c1cnc2c(c1)N(S(=O)(=O)c1ccc(C(F)(F)F)cc1)CCO2 (racemic) [Example 73, +/− methyl 2-(1-(1-(4-(trifluoromethyl)phenylsulf-onyl)-2,3-dihydro-1H-pyrido[2,3-b][1,4]oxazine-7-carbonyl)piperidin-2-yl)acetate] | < 4.52 | 
17 | CC(C)(C)NC(=O)c1cnc2c(c1)N(S(=O)(=O)c1ccc(C(C)(C)C)cc1)CCO2 [Example 82, N-tert-butyl-1-(4-tert-butylphenylsulfonyl)-2,3-dihydro-1H-pyrido[2,3-b][1,4]oxazine-7-carboxamide] | < 4.52 | 
18 | CC(C)(C)NC(=O)c1cnc2c(c1)N(S(=O)(=O)c1ccc(Cl)cc1Cl)CCO2 [Example 54, N-tert-butyl-1-(2,4-dichlorophenylsulfonyl)-2,3-dihydro-1H-pyrido[2,3-b][1,4]oxazine-7-carboxamide] | < 4.52 | 

Row | SMILES | pEC50 | inverse agonist mark, human CB1 receptor (asterisk at the compound number)
19 | O=C(NC1CCCC1)c1cnc2c(c1)N(Cc1ccc(Cl)cc1)C(=O)CO2 [Example 222, 1-(4-chlorobenzyl)-N-cyclopentyl-2-oxo-2,3-dihydro-1H-pyrido[2,3-b][1,4]oxazine-7-carboxamide] | < 4.52 | 
20 | CNCCOC(=O)c1cnc2c(c1)N(S(=O)(=O)c1ccc(Cl)c(Cl)c1)CCO2 [Example 203, 2-(methylamino)ethyl 1-(3,4-dichlorophenylsulfonyl)-2,3-dihydro-1H-pyrido[2,3-b][1,4]oxazine-7-carboxylate] | < 4.52 | 
21 | CC(C)(CN1CCCC1)NC(=O)c1cnc2c(c1)N(S(=O)(=O)c1ccc(C(F)(F)F)cc1)CCO2 [Example 37, N-(2-methyl-1-(pyrrolidin-1-yl)propan-2-yl)-1-(4-(trifluoromethyl)phenylsulf-onyl)-2,3-dihydro-1H-pyrido[2,3-b][1,4]oxazine-7-carboxamide] | < 4.52 | 
22 | CC1CN(C(=O)c2cnc3c(c2)N(S(=O)(=O)c2ccc(C(F)(F)F)cc2)CCO3)CC(C)O1 (centres unmarked) [Example 198, (2,6-dimethylmorpholino)(1-(4-(trifluoromethyl)phenylsulf-onyl)-2,3-dihydro-1H-pyrido[2,3-b][1,4]oxazin-7-yl)methanone] | < 4.52 | 
23 | CC(C)(C)NC(=O)c1cnc2c(c1)N(S(=O)(=O)c1cccc(OC(F)(F)F)c1)CCO2 [Example 85, N-tert-butyl-1-(3-(trifluoromethoxy)phenyl-sulfonyl)-2,3-dihydro-1H-pyrido[2,3-b][1,4]oxazine-7-carboxamide] | < 4.52 | 
24 | O=C(c1cnc2c(c1)N(S(=O)(=O)c1ccc(C(F)(F)F)cc1)CCO2)N1CCOCC1 [Example 50, morpholino(1-(4-(trifluoromethyl)phenylsulf-onyl)-2,3-dihydro-1H-pyrido[2,3-b][1,4]oxazin-7-yl)methanone] | < 4.52 | 
25 | O=C(c1cnc2c(c1)N(S(=O)(=O)c1ccc(Cl)c(Cl)c1)CCO2)N1CCC(F)(F)C1 [Example 126, (1-(3,4-dichlorophenyl-sulfonyl)-2,3-dihydro-1H-pyrido[2,3-b][1,4]oxazin-7-yl)(3,3-difluoro-pyrrolidin-1-yl)methanone] | < 4.52 | 
26 | Cc1cccc(S(=O)(=O)N2CCOc3ncc(C(=O)NC(C)(C)C)cc32)c1 [Example 86, N-tert-butyl-1-(m-tolylsulfonyl)-2,3-dihydro-1H-pyrido[2,3-b][1,4]oxazine-7-carboxamide] | < 4.52 | 
27 | CC(C)(C)NC(=O)c1cnc2c(c1)N(S(=O)(=O)c1ccc(Oc3ccccc3)cc1)CCO2 [Example 93, N-tert-butyl-1-(4-phenoxyphenylsulfonyl)-2,3-dihydro-1H-pyrido[2,3-b][1,4]oxazine-7-carboxamide] |  | 2, 3, 5, 7, 8, 10, 39, 58, 61*, 69, 93*, 101, 102, 109, 110, 111, 112,
28 | O=C(OCC1CCCCN1)c1cnc2c(c1)N(S(=O)(=O)c1ccc(C(F)(F)F)cc1)CCO2 (centres unmarked) [Example 202, piperidin-2-ylmethyl 1-(4-(trifluoromethyl)phenylsulfonyl)-2,3-dihydro-1H-pyrido[2,3-b][1,4]oxazine-7-carboxylate] | < 4.52 | 
29 | O=C(c1cnc2c(c1)N(S(=O)(=O)c1ccc(C(F)(F)F)cc1)CCO2)N1CCCCC1CO (racemic) [Example 72, +/− (2-(hydroxymethyl)piperidin-1-yl)(1-(4-(trifluoro-methyl)phenylsulfonyl)-2,3-dihydro-1H-pyrido [2,3-b][1,4]oxazin-7-yl) methanone] | < 4.52 | 
30 | CC(C)(C)NC(=O)c1cnc2c(c1)N(S(=O)(=O)N1CCC(N3CCCC3)CC1)CCO2 [Example 176, N-tert-butyl-1-(4-(pyrrolidin-1-yl)piperidin-1-ylsulfonyl)-2,3-dihydro-1H-pyrido[2,3-b][1,4]oxazine-7-carboxamide] | < 4.52 | 
31 | CC(C)(CO)NC(=O)c1cnc2c(c1)N(S(=O)(=O)NCc1ccccc1)CCO2 [Example 179, 1-(N-benzylsulfamoyl)-N-(1-hydroxy-2-methylpropan-2-yl)-2,3-dihydro-1H-pyrido[2,3-b][1,4]oxazine-7-carboxamide] | < 4.52 | 
32 | CC(C)(C)NC(=O)c1cnc2c(c1)N(S(=O)(=O)c1cccnc1)CCO2 [Example 16, N-tert-butyl-1-(pyridin-3-ylsulfonyl)-2,3-dihydro-1H-pyrido[2,3-b][1,4]oxazine-7-carboxamide] | < 4.52 | 
33 | CC(C)CS(=O)(=O)N1CCOc2ncc(C(=O)NC3CCCC3)cc21 [Example 29, N-cyclopentyl-1-(isobutylsulfonyl)-2,3-dihydro-1H-pyrido[2,3-b][1,4]oxazine-7-carboxamide] | < 4.52 | 
34 | CN(Cc1ccccc1)C(=O)c1cnc2c(c1)N(S(=O)(=O)c1ccc(F)cc1)CCO2 [Example 32, N-benzyl-1-(4-fluorophenylsulfonyl)-N-methyl-2,3-dihydro-1H-pyrido[2,3-b][1,4]oxazine-7-carboxamide] | < 4.52 | 
35 | CC(C)(CN1CCOCC1)NC(=O)c1cnc2c(c1)N(S(=O)(=O)N1CCCCC1)CCO2 [Example 147, N-(2-methyl-1-morpholinopropan-2-yl)-1-(piperidin-1-ylsulfonyl)-2,3-dihydro-1H-pyrido[2,3-b][1,4]oxazine-7-carboxamide] | < 4.52 | 
